According to ChEMBL document CHEMBL1201862, “PubChem BioAssay data set” (2004):
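Test compounds were applied to cells in 96-well plates for 48 hours at 5 doses. At the GI50, growth is halved.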 Activity calls are given as the source filed them. Rule as the data show it: active = GI50 up to about 1.1 µM and inactive = higher.

Tests used:
Experiment in all cases: DTP human tumour cell line panel, 48 h
Malme-3M = tested on: Malme-3M
Hs-578T = tested on: Hs-578T
SNB-75 = tested on: SNB-75
ACHN = tested on: ACHN
UACC-257 = tested on: UACC-257
SNB-19 = tested on: SNB-19
HOP-92 = tested on: HOP-92
T47D = tested on: T47D
EKVX = tested on: EKVX
CCRF-CEM = tested on: CCRF-CEM
OVCAR-5 = tested on: OVCAR-5
NCI-H460 = tested on: NCI-H460
NCI-H23 = tested on: NCI-H23
SF-268 = tested on: SF-268
RPMI-8226 = tested on: RPMI-8226
KM12 = tested on: KM12
HOP-62 = tested on: HOP-62
NCI/ADR-RES = tested on: NCI/ADR-RES
SK-MEL-2 = tested on: SK-MEL-2
DU-145 = tested on: DU-145
OVCAR-8 = tested on: OVCAR-8
HCC 2998 = tested on: HCC 2998
PC-3 = tested on: PC-3
M14 = tested on: M14
SF-295 = tested on: SF-295
MDA-MB-435 = tested on: MDA-MB-435
MOLT-4 = tested on: MOLT-4
NCI-H226 = tested on: NCI-H226
TK-10 = tested on: TK-10
A549 = tested on: A549
UACC-62 = tested on: UACC-62
A498 = tested on: A498
MDA-MB-231 = tested on: MDA-MB-231
LOX IMVI = tested on: LOX IMVI
CAKI-1 = tested on: CAKI-1
SK-OV-3 = tested on: SK-OV-3
IGROV-1 = tested on: IGROV-1
SK-MEL-5 = tested on: SK-MEL-5
786-0 = tested on: 786-0
UO-31 = tested on: UO-31
MDA-N = tested on: MDA-N
NCI-H522 = tested on: NCI-H522
SW-620 = tested on: SW-620
SK-MEL-28 = tested on: SK-MEL-28
COLO 205 = tested on: COLO 205
SN12C = tested on: SN12C
K562 = tested on: K562
MCF7 = tested on: MCF7
RXF 393 = tested on: RXF 393
OVCAR-3 = tested on: OVCAR-3
HL-60 = tested on: HL-60
HCT-15 = tested on: HCT-15
BT-549 = tested on: BT-549
SF-539 = tested on: SF-539
OVCAR-4 = tested on: OVCAR-4
HCT-116 = tested on: HCT-116
HT-29 = tested on: HT-29
U-251 = tested on: U-251
SR = tested on: SR

CC(=O)OC1=c2ccccc2=C(O)C2C1C=NN2C(C)=O (configuration not stated)
GI50 (Malme-3M): 44.3 µM (inactive) | GI50 (Hs-578T): 88.5 µM (inactive) | GI50 (SNB-75): 36.7 µM (inactive) | GI50 (ACHN): > 100 µM (inactive) | GI50 (UACC-257): > 100 µM (inactive) | GI50 (SNB-19): > 100 µM (inactive) | GI50 (HOP-92): > 100 µM (inactive) | GI50 (T47D): > 100 µM (inactive) | GI50 (EKVX): 79.4 µM (inactive) | GI50 (CCRF-CEM): > 100 µM (inactive) | GI50 (OVCAR-5): > 100 µM (inactive) | GI50 (NCI-H460): > 100 µM (inactive) | GI50 (NCI-H23): > 100 µM (inactive) | GI50 (SF-268): > 100 µM (inactive) | GI50 (RPMI-8226): > 100 µM (inactive) | GI50 (KM12): > 100 µM (inactive) | GI50 (HOP-62): > 100 µM (inactive) | GI50 (NCI/ADR-RES): > 100 µM (inactive) | GI50 (SK-MEL-2): > 100 µM (inactive) | GI50 (DU-145): > 100 µM (inactive) | GI50 (OVCAR-8): > 100 µM (inactive) | GI50 (HCC 2998): > 100 µM (inactive) | GI50 (PC-3): > 100 µM (inactive) | GI50 (M14): > 100 µM (inactive) | GI50 (SF-295): > 100 µM (inactive) | GI50 (MDA-MB-435): > 100 µM (inactive) | GI50 (MOLT-4): > 100 µM (inactive) | GI50 (NCI-H226): > 100 µM (inactive) | GI50 (TK-10): > 100 µM (inactive) | GI50 (A549): > 100 µM (inactive) | GI50 (UACC-62): > 100 µM (inactive) | GI50 (A498): > 100 µM (inactive) | GI50 (MDA-MB-231): > 100 µM (inactive) | GI50 (LOX IMVI): > 100 µM (inactive) | GI50 (CAKI-1): > 100 µM (inactive) | GI50 (SK-OV-3): > 100 µM (inactive) | GI50 (IGROV-1): 99.3 µM (inactive) | GI50 (SK-MEL-5): > 100 µM (inactive) | GI50 (786-0): > 100 µM (inactive) | GI50 (UO-31): > 100 µM (inactive) | GI50 (MDA-N): > 100 µM (inactive) | GI50 (NCI-H522): > 100 µM (inactive) | GI50 (SW-620): > 100 µM (inactive) | GI50 (SK-MEL-28): > 100 µM (inactive) | GI50 (COLO 205): 95.3 µM (inactive) | GI50 (SN12C): > 100 µM (inactive) | GI50 (K562): 18.4 µM (inactive) | GI50 (MCF7): > 100 µM (inactive) | GI50 (RXF 393): > 100 µM (inactive) | GI50 (OVCAR-3): > 100 µM (inactive) | GI50 (HL-60): > 100 µM (inactive) | GI50 (HCT-15): > 100 µM | GI50 (BT-549): > 100 µM (inactive) | GI50 (SF-539): > 100 µM (inactive) | GI50 (OVCAR-4): > 100 µM (inactive) | GI50 (HCT-116): > 100 µM (inactive) | GI50 (HT-29): > 100 µM (inactive) | GI50 (U-251): > 100 µM (inactive)

COc1ccc(N2C(=O)C3c4[nH]c5ccccc5c4C4CCC(C(C)C)CC4C3C2=O)cc1 (configuration not stated)
GI50 (Malme-3M): 42.9 µM (inactive) | GI50 (Hs-578T): 40.7 µM (inactive) | GI50 (SNB-75): 35.2 µM (inactive) | GI50 (ACHN): > 100 µM (inactive) | GI50 (UACC-257): > 100 µM (inactive) | GI50 (SNB-19): > 100 µM (inactive) | GI50 (HOP-92): > 100 µM (inactive) | GI50 (T47D): > 100 µM (inactive) | GI50 (EKVX): > 100 µM (inactive) | GI50 (CCRF-CEM): 0.343 µM (active) | GI50 (OVCAR-5): > 100 µM (inactive) | GI50 (NCI-H460): > 100 µM (inactive) | GI50 (NCI-H23): > 100 µM (inactive) | GI50 (SF-268): > 100 µM (inactive) | GI50 (RPMI-8226): > 100 µM (inactive) | GI50 (KM12): > 100 µM (inactive) | GI50 (HOP-62): 33 µM (inactive) | GI50 (NCI/ADR-RES): > 100 µM (inactive) | GI50 (SK-MEL-2): > 100 µM (inactive) | GI50 (DU-145): > 100 µM (inactive) | GI50 (OVCAR-8): > 100 µM (inactive) | GI50 (HCC 2998): > 100 µM (inactive) | GI50 (PC-3): > 100 µM (inactive) | GI50 (M14): > 100 µM (inactive) | GI50 (SF-295): 53 µM (inactive) | GI50 (MDA-MB-435): > 100 µM (inactive) | GI50 (MOLT-4): > 100 µM (inactive) | GI50 (NCI-H226): > 100 µM (inactive) | GI50 (TK-10): > 100 µM (inactive) | GI50 (A549): > 100 µM (inactive) | GI50 (UACC-62): > 100 µM (inactive) | GI50 (A498): > 100 µM (inactive) | GI50 (MDA-MB-231): > 100 µM (inactive) | GI50 (LOX IMVI): > 100 µM (inactive) | GI50 (CAKI-1): > 100 µM (inactive) | GI50 (SK-OV-3): 37.6 µM (inactive) | GI50 (IGROV-1): > 100 µM (inactive) | GI50 (SK-MEL-5): > 100 µM (inactive) | GI50 (786-0): > 100 µM (inactive) | GI50 (UO-31): > 100 µM (inactive) | GI50 (MDA-N): > 100 µM (inactive) | GI50 (NCI-H522): > 100 µM (inactive) | GI50 (SW-620): > 100 µM (inactive) | GI50 (SK-MEL-28): > 100 µM (inactive) | GI50 (COLO 205): > 100 µM (inactive) | GI50 (SN12C): > 100 µM (inactive) | GI50 (K562): > 100 µM (inactive) | GI50 (MCF7): > 100 µM (inactive) | GI50 (OVCAR-3): > 100 µM (inactive) | GI50 (HCT-15): > 100 µM | GI50 (BT-549): > 100 µM (inactive) | GI50 (OVCAR-4): > 100 µM (inactive) | GI50 (SR): 40.7 µM (inactive) | GI50 (HCT-116): > 100 µM (inactive) | GI50 (HT-29): > 100 µM (inactive) | GI50 (U-251): 38.8 µM (inactive)

Cc1c(-c2ccccc2)n[nH]c1NC1(C)C(=O)N(/N=C/c2ccccc2)N=C1c1ccccc1 (configuration not stated)
GI50 (Malme-3M): > 100 µM (inactive) | GI50 (Hs-578T): > 100 µM (inactive) | GI50 (SNB-75): > 100 µM (inactive) | GI50 (ACHN): 24.7 µM (inactive) | GI50 (UACC-257): > 100 µM (inactive) | GI50 (SNB-19): > 100 µM (inactive) | GI50 (HOP-92): > 100 µM (inactive) | GI50 (T47D): > 26 µM (inactive) | GI50 (EKVX): > 91.6 µM (inactive) | GI50 (CCRF-CEM): 25.9 µM (inactive) | GI50 (OVCAR-5): > 100 µM (inactive) | GI50 (NCI-H460): > 62.5 µM (inactive) | GI50 (NCI-H23): > 100 µM (inactive) | GI50 (SF-268): > 100 µM (inactive) | GI50 (RPMI-8226): 5.7 µM (inactive) | GI50 (KM12): 38.6 µM (inactive) | GI50 (HOP-62): > 100 µM (inactive) | GI50 (NCI/ADR-RES): 43.8 µM (inactive) | GI50 (SK-MEL-2): > 84.1 µM (inactive) | GI50 (DU-145): > 100 µM (inactive) | GI50 (OVCAR-8): > 100 µM (inactive) | GI50 (HCC 2998): > 100 µM (inactive) | GI50 (PC-3): 24.9 µM (inactive) | GI50 (M14): > 87.3 µM (inactive) | GI50 (SF-295): 68.2 µM (inactive) | GI50 (MDA-MB-435): 52.7 µM (inactive) | GI50 (MOLT-4): 10.2 µM (inactive) | GI50 (NCI-H226): > 100 µM (inactive) | GI50 (TK-10): > 100 µM (inactive) | GI50 (A549): 7.4 µM (inactive) | GI50 (UACC-62): > 100 µM (inactive) | GI50 (A498): > 83.4 µM (inactive) | GI50 (MDA-MB-231): > 100 µM (inactive) | GI50 (LOX IMVI): > 100 µM (inactive) | GI50 (CAKI-1): > 100 µM (inactive) | GI50 (SK-OV-3): > 100 µM (inactive) | GI50 (IGROV-1): > 100 µM (inactive) | GI50 (SK-MEL-5): 7.96 µM (inactive) | GI50 (786-0): > 100 µM (inactive) | GI50 (UO-31): > 100 µM (inactive) | GI50 (MDA-N): 97.5 µM (inactive) | GI50 (NCI-H522): > 100 µM (inactive) | GI50 (SW-620): > 93.3 µM (inactive) | GI50 (SK-MEL-28): > 100 µM (inactive) | GI50 (COLO 205): > 30.5 µM (inactive) | GI50 (SN12C): > 19.9 µM (inactive) | GI50 (K562): 6.15 µM (inactive) | GI50 (MCF7): 4.78 µM (inactive) | GI50 (RXF 393): > 29.8 µM (inactive) | GI50 (OVCAR-3): > 31.6 µM (inactive) | GI50 (HL-60): 46.6 µM (inactive) | GI50 (HCT-15): > 44.5 µM | GI50 (BT-549): > 100 µM (inactive) | GI50 (SF-539): > 100 µM (inactive) | GI50 (OVCAR-4): 31.8 µM (inactive) | GI50 (HCT-116): > 59.2 µM (inactive) | GI50 (HT-29): > 100 µM (inactive) | GI50 (U-251): > 33.6 µM (inactive)
